“And” between values parts separate entries of the source, which are not always exact repeats. Equal values may be shown once. The source made the active and inactive calls. The rule behind the calls is not given here.
How the values were obtained:
[1] = system: Rattus norvegicus; test: Anti-inflammatory activity in orally dosed Wistar rat assessed as reduction of carrageenan-induced paw edema; format: functional; conditions: po; for Inhibition: 30 mg/kg
[2] = target: Prostaglandin G/H synthase 1 (Ovis aries) (UniProt P05979); test: Inhibition of microsomal COX1 at 10 uM
Sequence of Prostaglandin G/H synthase 1 (Ovis aries) (P05979 whole entry, looked up): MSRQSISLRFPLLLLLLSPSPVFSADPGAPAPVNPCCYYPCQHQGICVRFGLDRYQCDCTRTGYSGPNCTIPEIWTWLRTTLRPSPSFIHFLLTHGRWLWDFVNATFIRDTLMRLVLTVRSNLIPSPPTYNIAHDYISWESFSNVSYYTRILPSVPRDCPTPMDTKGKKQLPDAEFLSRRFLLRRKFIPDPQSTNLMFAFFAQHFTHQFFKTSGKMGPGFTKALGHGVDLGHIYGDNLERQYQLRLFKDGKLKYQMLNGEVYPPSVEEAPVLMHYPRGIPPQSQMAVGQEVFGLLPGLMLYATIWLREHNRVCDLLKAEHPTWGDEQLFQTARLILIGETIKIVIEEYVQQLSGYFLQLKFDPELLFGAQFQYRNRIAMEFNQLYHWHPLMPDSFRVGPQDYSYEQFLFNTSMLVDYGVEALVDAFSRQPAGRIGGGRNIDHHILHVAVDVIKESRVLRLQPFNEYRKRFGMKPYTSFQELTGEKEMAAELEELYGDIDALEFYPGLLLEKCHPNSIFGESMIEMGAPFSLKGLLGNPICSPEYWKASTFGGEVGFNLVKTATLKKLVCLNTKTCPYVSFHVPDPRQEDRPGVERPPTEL

[3] = system: Rattus norvegicus; test: Anti-inflammatory activity in orally dosed Wistar rat assessed as reduction of carrageenan-induced paw edema at 3 mg/kg, po; format: functional, organism-based; parameters: dose 3 mg/kg
[4] = system: Rattus norvegicus; test: Anti-inflammatory activity in orally dosed Wistar rat assessed as reduction of carrageenan-induced paw edema at 10 mg/kg, po; format: functional, organism-based; parameters: dose 10 mg/kg
[5] = target: T1, Prostaglandin G/H synthase 2 (Homo sapiens) (UniProt P35354); test: Inhibition of human recombinant COX2 expressed in sf9 cells infected with baculovirus at 10 uM
T1 sequence (whole entry): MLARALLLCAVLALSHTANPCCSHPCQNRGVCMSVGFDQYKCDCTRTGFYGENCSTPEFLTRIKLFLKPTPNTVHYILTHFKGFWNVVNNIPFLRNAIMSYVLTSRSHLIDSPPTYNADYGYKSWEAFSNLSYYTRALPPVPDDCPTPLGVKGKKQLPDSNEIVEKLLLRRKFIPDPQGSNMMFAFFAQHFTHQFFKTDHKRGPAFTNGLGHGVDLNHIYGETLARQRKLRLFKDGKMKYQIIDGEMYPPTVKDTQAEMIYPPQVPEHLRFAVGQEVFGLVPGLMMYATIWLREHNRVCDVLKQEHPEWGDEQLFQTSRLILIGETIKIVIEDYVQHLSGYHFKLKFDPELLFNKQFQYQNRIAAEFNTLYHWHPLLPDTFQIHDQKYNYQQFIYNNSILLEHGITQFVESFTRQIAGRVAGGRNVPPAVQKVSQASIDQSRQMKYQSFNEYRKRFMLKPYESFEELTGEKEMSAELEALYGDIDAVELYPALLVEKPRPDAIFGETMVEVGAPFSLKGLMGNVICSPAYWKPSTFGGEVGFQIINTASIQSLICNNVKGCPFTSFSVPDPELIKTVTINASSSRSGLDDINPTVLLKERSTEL

[6] = system: Rattus norvegicus; test: Anti-inflammatory activity in orally dosed Wistar rat assessed as reduction of carrageenan-induced paw edema at 1 mg/kg, po; format: functional, organism-based; parameters: dose 1 mg/kg
[7] = Terminal half life in Wistar rat at 100 mg/kg, po; format: ADME, organism-based; parameters: dose 100 mg/kg, route oral; conditions: in vivo
[8] = Cmax in Wistar rat at 100 mg/kg, po; format: ADME, organism-based; parameters: dose 100 mg/kg, route oral; conditions: in vivo
[9] = AUC (0-infinity) in Wistar rat at 100 mg/kg, po; format: ADME, organism-based; parameters: time infinity, dose 100 mg/kg, route oral; conditions: plasma
[10] = Tmax in Wistar rat at 100 mg/kg, po; format: ADME, organism-based; parameters: dose 100 mg/kg, route oral; conditions: in vivo
[11] = AUC in Wistar rat at 100 mg/kg, po; format: ADME, organism-based; parameters: dose 100 mg/kg, route oral; conditions: plasma
[12] = system: Rattus norvegicus; test: Anti-inflammatory activity in orally dosed Wistar rat assessed as reduction of carrageenan-induced paw edema at 0.3 mg/kg, po; format: functional
[13] = system: Rattus norvegicus; test: Anti-inflammatory activity in orally dosed Wistar rat assessed as reduction of carrageenan-induced paw edema at 30 mg/kg, po; format: functional

SMILES	inhibition [2]	inhibition [5]	ED50 [1]	inhibition at 30 mg/kg [13]	other results
CCC(=O)[N-]S(=O)(=O)c1ccc(-n2nc(C(F)(F)F)cc2-c2ccc3c(c2)CCC3)cc1CO.[Na+]	0%	22%	–	–	Inhibition [1]: 52%; Activity [3]: inactive; Activity [4]: inactive; Activity [6]: inactive
CCC(=O)NS(=O)(=O)c1ccc(-n2nc(C(F)F)cc2-c2ccc(OC)c(C)c2)cc1COC(=O)CC [listing 1 of 2 here]	0%	–	–	–	–
CCC(=O)NS(=O)(=O)c1ccc(-n2nc(C(F)(F)F)cc2-c2ccc(Br)cc2)cc1COC(=O)CC [listing 1 of 2 here]	0%	25% and 35%	–	–	–
CCC(=O)OCc1cc(-n2nc(C(F)(F)F)cc2-c2ccc(SC)cc2)ccc1S(N)(=O)=O	0%	40%	–	–	Inhibition [1]: 60%; Activity [3]: inactive; Activity [4]: inactive; Activity [6]: inactive
CCC(=O)[N-]S(=O)(=O)c1ccc(-n2nc(C(F)F)cc2-c2ccc(Br)cc2)cc1CO.[Na+]	0%	14%	5.6 mg/kg	–	half-life [7]: 7.42 h; Cmax [8]: 28.4 µg/mL; AUC(0-inf) [9]: 321 µg·h/mL; Tmax [10]: 2.85 h; AUC [11]: 289 µg·h/mL
CCC(=O)[N-]S(=O)(=O)c1ccc(-n2nc(C(F)(F)F)cc2-c2ccc(Br)cc2)cc1CO.[Na+]	0%	23%	7.2 mg/kg	–	–
CCC(=O)[N-]S(=O)(=O)c1ccc(-c2c(-c3ccccc3)noc2C)cc1.[Na+] [PARECOXIB SODIUM]	–	–	–	–	inhibition at 0.3 mg/kg [12]: 98%
CCC(=O)OCc1cc(-n2nc(C(F)(F)F)cc2-c2ccc(Br)cc2)ccc1S(N)(=O)=O	0%	65%	17 mg/kg	–	–
CCC(=O)NS(=O)(=O)c1ccc(-n2nc(C(F)(F)F)cc2-c2ccc3c(c2)CCO3)cc1COC(=O)CC [listing 1 of 2 here]	–	–	–	25%	–
NS(=O)(=O)c1ccc(-n2nc(C(F)(F)F)cc2-c2ccc3c(c2)CCO3)cc1CO	–	–	22.3 mg/kg	–	–
CCC(=O)[N-]S(=O)(=O)c1ccc(-n2nc(C(F)F)cc2-c2ccc(Br)cc2)cc1COC(=O)CC.[Na+]	–	–	7.9 mg/kg	–	–
CCC(=O)[N-]S(=O)(=O)c1ccc(-n2nc(C(F)(F)F)cc2-c2ccc(SC)cc2)cc1COC(=O)CC.[Na+]	–	–	–	40%	–
NS(=O)(=O)c1ccc(-n2nc(C(F)(F)F)cc2-c2ccc3c(c2)CCC3)cc1CO	–	–	23.5 mg/kg	–	–
CCC(=O)NS(=O)(=O)c1ccc(-n2nc(C(F)(F)F)cc2-c2ccc3c(c2)CCC3)cc1COC(=O)CC [listing 1 of 2 here]	–	–	–	–	Inhibition [1]: 64%
COc1ccc(-c2cc(C(F)F)nn2-c2ccc(S(N)(=O)=O)c(CO)c2)cc1C	–	–	18.5 mg/kg	–	Cmax [8]: 0.7 µg/mL; Tmax [10]: 2.25 h; AUC [11]: 2.4 µg·h/mL
CCC(=O)[N-]S(=O)(=O)c1ccc(-n2nc(C(F)(F)F)cc2-c2ccc3c(c2)CCO3)cc1CO.[Na+]	5%	25%	7.5 mg/kg	–	–
NS(=O)(=O)c1ccc(-n2nc(C(F)(F)F)cc2-c2ccc(Br)cc2)cc1CO	–	–	–	35%	–
CCC(=O)OCc1cc(-n2nc(C(F)F)cc2-c2ccc(Br)cc2)ccc1S(N)(=O)=O	5%	55%	–	40%	–
CCC(=O)OCc1cc(-n2nc(C(F)(F)F)cc2-c2ccc3c(c2)CCO3)ccc1S(N)(=O)=O	0%	61%	8.5 mg/kg	–	–
CCC(=O)OCc1cc(-n2nc(C(F)(F)F)cc2-c2ccc(OC)c(C)c2)ccc1S(N)(=O)=O	12%	–	10.9 mg/kg	–	–
COc1ccc(-c2cc(C(F)(F)F)nn2-c2ccc(S(N)(=O)=O)c(CO)c2)cc1C	–	–	21.7 mg/kg	–	half-life [7]: 6.63 h; Cmax [8]: 6.37 µg/mL; AUC(0-inf) [9]: 112 µg·h/mL; Tmax [10]: 3.5 h; AUC [11]: 73.7 µg·h/mL
CCC(=O)OCc1cc(-n2nc(C(F)(F)F)cc2-c2ccc3c(c2)CCC3)ccc1S(N)(=O)=O	0%	57%	–	30%	–
CCC(=O)NS(=O)(=O)c1ccc(-n2nc(C(F)F)cc2-c2ccc(Br)cc2)cc1COC(=O)CC [listing 1 of 2 here]	–	–	–	45%	–

SMILES	inhibition [2]	inhibition [5]	ED50 [1]	inhibition at 30 mg/kg [13]	other results
CCC(=O)NS(=O)(=O)c1ccc(-n2nc(C(F)(F)F)cc2-c2ccc(SC)cc2)cc1COC(=O)CC [listing 1 of 2 here]	–	–	–	38%	–
CCC(=O)NS(=O)(=O)c1ccc(-n2nc(C(F)F)cc2-c2ccc(Br)cc2)cc1COC(=O)CC [listing 2 of 2 here]	0% and 1%	12% and 25%	–	–	–
CCC(=O)NS(=O)(=O)c1ccc(-n2nc(C(F)(F)F)cc2-c2ccc(Br)cc2)cc1COC(=O)CC [listing 2 of 2 here]	–	–	–	37%	–
CCC(=O)OCc1cc(-n2nc(C(F)F)cc2-c2ccc(OC)c(C)c2)ccc1S(N)(=O)=O	0%	75%	15 mg/kg	–	–
CCC(=O)NS(=O)(=O)c1ccc(-n2nc(C(F)(F)F)cc2-c2ccc3c(c2)CCO3)cc1COC(=O)CC [listing 2 of 2 here]	0%	2% and 12%	–	–	–
CCC(=O)NS(=O)(=O)c1ccc(-n2nc(C(F)F)cc2-c2ccc(OC)c(C)c2)cc1COC(=O)CC [listing 2 of 2 here]	–	–	–	42%	–
CCC(=O)[N-]S(=O)(=O)c1ccc(-n2nc(C(F)(F)F)cc2-c2ccc(OC)c(C)c2)cc1COC(=O)CC.[Na+]	–	–	–	34%	–
CCCC(=O)[N-]S(=O)(=O)c1ccc(-n2nc(C(F)(F)F)cc2-c2ccc(C)cc2)cc1.[Na+]	0%	2%	6.64 mg/kg	–	–
CCC(=O)[N-]S(=O)(=O)c1ccc(-n2nc(C(F)(F)F)cc2-c2ccc(OC)c(C)c2)cc1CO.[Na+]	0%	15%	6.2 mg/kg	–	half-life [7]: 6.82 h; Cmax [8]: 9.32 µg/mL; AUC(0-inf) [9]: 149 µg·h/mL; Tmax [10]: 3.78 h; AUC [11]: 125 µg·h/mL
CCC(=O)[N-]S(=O)(=O)c1ccc(-n2nc(C(F)(F)F)cc2-c2ccc3c(c2)CCO3)cc1COC(=O)CC.[Na+]	–	–	–	43%	–
CCC(=O)NS(=O)(=O)c1ccc(-n2nc(C(F)(F)F)cc2-c2ccc(SC)cc2)cc1COC(=O)CC [listing 2 of 2 here]	0%	18% and 25%	–	–	–
CCC(=O)[N-]S(=O)(=O)c1ccc(-n2nc(C(F)F)cc2-c2ccc(OC)c(C)c2)cc1COC(=O)CC.[Na+]	–	–	–	32%	–
CCC(=O)NS(=O)(=O)c1ccc(-n2nc(C(F)(F)F)cc2-c2ccc(OC)c(C)c2)cc1COC(=O)CC [listing 1 of 2 here]	0%	10% and 5%	–	–	–
CSc1ccc(-c2cc(C(F)(F)F)nn2-c2ccc(S(N)(=O)=O)c(CO)c2)cc1	–	–	–	47%	–
CCC(=O)NS(=O)(=O)c1ccc(-n2nc(C(F)(F)F)cc2-c2ccc3c(c2)CCC3)cc1COC(=O)CC [listing 2 of 2 here]	0%	–	–	–	Activity [3]: inactive; Activity [4]: inactive; Activity [6]: inactive
Cc1ccc(-c2cc(C(F)(F)F)nn2-c2ccc(S(N)(=O)=O)cc2)cc1 [CELECOXIB]	–	–	6.7 mg/kg	–	–
CCC(=O)[N-]S(=O)(=O)c1ccc(-n2nc(C(F)(F)F)cc2-c2ccc(Br)cc2)cc1COC(=O)CC.[Na+]	–	–	12.5 mg/kg	–	–
CCC(=O)[N-]S(=O)(=O)c1ccc(-n2nc(C(F)(F)F)cc2-c2ccc3c(c2)CCC3)cc1COC(=O)CC.[Na+]	–	–	–	41%	–
CCC(=O)[N-]S(=O)(=O)c1ccc(-n2nc(C(F)(F)F)cc2-c2ccc(SC)cc2)cc1CO.[Na+]	0%	21%	–	36%	–
CCC(=O)[N-]S(=O)(=O)c1ccc(-n2nc(C(F)F)cc2-c2ccc(OC)c(C)c2)cc1CO.[Na+]	0%	13%	6.3 mg/kg	–	half-life [7]: 5.92 h; Cmax [8]: 7.54 µg/mL; AUC(0-inf) [9]: 114 µg·h/mL; Tmax [10]: 2.82 h; AUC [11]: 106 µg·h/mL
NS(=O)(=O)c1ccc(-n2nc(C(F)F)cc2-c2ccc(Br)cc2)cc1CO	–	–	–	42%	half-life [7]: 7.51 h; Cmax [8]: 20.8 µg/mL; AUC(0-inf) [9]: 265 µg·h/mL; Tmax [10]: 2.67 h; AUC [11]: 239 µg·h/mL
CCC(=O)NS(=O)(=O)c1ccc(-n2nc(C(F)(F)F)cc2-c2ccc(OC)c(C)c2)cc1COC(=O)CC [listing 2 of 2 here]	–	–	–	48%	–
